{"source": "patent US8575203B2", "about": "“Chemical compounds” (Boehringer Ingelheim International GmbH, priority 2010, dated 2013)", "biological_target": "Recombinant human PDK1 enzyme (aa 52-556) (Homo sapiens (Human), UniProt O15530)", "sequence (O15530 52-556)": "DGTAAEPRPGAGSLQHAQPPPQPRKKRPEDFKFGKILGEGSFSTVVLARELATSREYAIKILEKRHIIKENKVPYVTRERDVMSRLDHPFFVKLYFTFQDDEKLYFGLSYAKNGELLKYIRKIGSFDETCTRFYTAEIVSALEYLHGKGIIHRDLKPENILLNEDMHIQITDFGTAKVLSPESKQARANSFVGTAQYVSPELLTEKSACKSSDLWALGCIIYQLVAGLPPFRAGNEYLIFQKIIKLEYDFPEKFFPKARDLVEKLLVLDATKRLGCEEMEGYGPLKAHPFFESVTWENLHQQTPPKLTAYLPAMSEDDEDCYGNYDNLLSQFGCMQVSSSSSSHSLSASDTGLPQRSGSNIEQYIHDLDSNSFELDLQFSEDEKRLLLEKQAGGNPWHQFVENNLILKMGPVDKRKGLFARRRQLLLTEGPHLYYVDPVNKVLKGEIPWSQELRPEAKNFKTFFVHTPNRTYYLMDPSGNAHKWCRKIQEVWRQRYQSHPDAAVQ", "experiment": "PDK1 kinase assay", "format": "biochemical", "conditions": "in vitro kinase assay, His6-PDK1 (aa 52-556), PDKtide, P33-ATP", "in_short": "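His6-tagged human PDK1 (aa 52-556) from baculovirus-infected insect cells, 3.33 ng/well, with 25 μM PDKtide in Tris pH 7.5/10 mM Mg-acetate. Compound (from 10 μM, 1:5 steps) was preincubated 30 min at RT, then 25 μM ATP solution with γ-33P-ATP was added for 90 min at RT. Phosphoric-acid-precipitated 33P was counted on filters.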"}
{"smiles": "O=C(NCC#Cc1ccc2nccc(NC3CC3)c2c1)c1cccn(Cc2ccc(F)c(F)c2)c1=O", "note": "[I-116]", "values": [{"measurement": "IC50", "result": 1000, "unit": "nM"}]}
{"smiles": "CN(C)CCSc1cnc2ccc(C#CCNC(=O)c3cncn(Cc4ccc(F)c(F)c4)c3=O)cc2n1", "note": "[I-18]", "values": [{"measurement": "IC50", "result": 17, "unit": "nM"}]}
{"smiles": "CN(C)CCNc1ccnc2ccc(C#CCNC(=O)c3cncn(Cc4ccc(F)c(F)c4)c3=O)cc12", "note": "[I-117]", "values": [{"measurement": "IC50", "result": 1000, "unit": "nM"}]}
{"smiles": "CN(C)CCCNc1ccnc2ccc(C#CCNC(=O)c3cncn(Cc4ccc(F)c(F)c4)c3=O)cc12", "note": "[I-119]", "values": [{"measurement": "IC50", "result": 554, "unit": "nM"}]}
{"smiles": "COCCN1CCC(Nc2cnc3ccc(C#CCNC(=O)c4cccn(Cc5ccc(F)c(F)c5)c4=O)cc3n2)CC1", "note": "[I-49]", "values": [{"measurement": "IC50", "result": 9, "unit": "nM"}]}
{"smiles": "O=C(NCC#Cc1ccc2ncnc(NCC(O)CO)c2c1)c1cccn(Cc2ccc(F)c(F)c2)c1=O", "note": "(stereo not shown) [II-37]", "values": [{"measurement": "IC50", "result": 44, "unit": "nM"}]}
{"smiles": "CN(C)CC(C)(C)CNc1cnc2ccc(C#CCNC(=O)c3cncn(Cc4ccc(F)c(F)c4)c3=O)cc2n1", "note": "[I-25]", "values": [{"measurement": "IC50", "result": 42, "unit": "nM"}]}
{"smiles": "CN1CCCC1CCNc1ncnc2ccc(C#CCNC(=O)c3cccn(Cc4ccc(F)c(F)c4)c3=O)cc12", "note": "(stereo not shown) [II-39]", "values": [{"measurement": "IC50", "result": 137, "unit": "nM"}]}
{"smiles": "CC(C)N1CCC[C@@H](COc2ccnc3ccc(C#CCNC(=O)c4cccn(Cc5ccc(F)c(F)c5)c4=O)cc23)C1", "note": "[I-125.22]", "values": [{"measurement": "IC50", "result": 3, "unit": "nM"}]}
{"smiles": "CN(C)c1ccnc2ccc(C#CCNC(=O)c3cncn(Cc4ccc(F)c(F)c4)c3=O)cc12", "note": "[I-90]", "values": [{"measurement": "IC50", "result": 110, "unit": "nM"}]}
{"smiles": "COc1cccc(CN(C)c2ncnc3ccc(C#CCNC(=O)c4cccn(Cc5ccc(F)c(F)c5)c4=O)cc23)c1", "note": "[II-45]", "values": [{"measurement": "IC50", "result": 63, "unit": "nM"}]}
{"smiles": "CN1CCC(Nc2cnc3ccc(C#CCNC(=O)c4cncn(Cc5ccc(F)c(F)c5)c4=O)cc3n2)CC1", "note": "[I-19]", "values": [{"measurement": "IC50", "result": 4, "unit": "nM"}]}
{"smiles": "CN(Cc1ccccc1)c1ncnc2ccc(C#CCNC(=O)c3cncn(Cc4ccc(F)c(F)c4)c3=O)cc12", "note": "[II-5]", "values": [{"measurement": "IC50", "result": 16, "unit": "nM"}]}
{"smiles": "CN(c1ncnc2ccc(C#CCNC(=O)c3cncn(Cc4ccc(F)c(F)c4)c3=O)cc12)C1CCCCC1", "note": "[II-22]", "values": [{"measurement": "IC50", "result": 371, "unit": "nM"}]}
{"smiles": "CN1CC(Nc2ncnc3ccc(C#CCNC(=O)c4cncn(Cc5ccc(F)c(F)c5)c4=O)cc23)C1", "note": "[II-2]", "values": [{"measurement": "IC50", "result": 171, "unit": "nM"}]}
{"smiles": "COC(=O)c1cnc2ccc(C#CCNC(=O)c3cncn(Cc4ccc(F)c(F)c4)c3=O)c(C)c2c1", "note": "[I-82]", "values": [{"measurement": "IC50", "result": 119, "unit": "nM"}]}
{"smiles": "O=C(NCC#Cc1ccc2ncc(N[C@H]3CC[C@H](N4CCN(CC5CC5)CC4)CC3)nc2c1)c1cncn(Cc2ccc(F)c(F)c2)c1=O", "note": "[I-42]", "values": [{"measurement": "IC50", "result": 3, "unit": "nM"}]}
{"smiles": "CN(C)CC(O)COc1ccnc2ccc(C#CCNC(=O)c3cncn(Cc4ccc(F)c(F)c4)c3=O)cc12", "note": "(stereo not shown) [I-104]", "values": [{"measurement": "IC50", "result": 71, "unit": "nM"}]}
{"smiles": "CN(CCc1ccccc1)c1ncnc2ccc(C#CCNC(=O)c3cncn(Cc4ccc(F)c(F)c4)c3=O)cc12", "note": "[II-3]", "values": [{"measurement": "IC50", "result": 134, "unit": "nM"}]}
{"smiles": "O=C(NCC#Cc1ccc2ncnc(NCCc3cccs3)c2c1)c1cncn(Cc2ccc(F)c(F)c2)c1=O", "note": "[II-12]", "values": [{"measurement": "IC50", "result": 161, "unit": "nM"}]}
{"smiles": "CN1CCC(Nc2cnc3ccc(C#CCNC(=O)c4cccn(Cc5ccc(F)c(F)c5)c4=O)cc3n2)CC1", "note": "[I-31]", "values": [{"measurement": "IC50", "result": 5, "unit": "nM"}]}
{"smiles": "CN1CCC(N(C)c2cnc3ccc(C#CCNC(=O)c4cncn(Cc5ccc(F)c(F)c5)c4=O)cc3n2)CC1", "note": "[I-28]", "values": [{"measurement": "IC50", "result": 21, "unit": "nM"}]}
{"smiles": "CC1(CNc2ncnc3ccc(C#CCNC(=O)c4cccn(Cc5ccc(F)c(F)c5)c4=O)cc23)COC1", "note": "[II-36]", "values": [{"measurement": "IC50", "result": 468, "unit": "nM"}]}
{"smiles": "CN(C)CCCN(C)C(=O)c1cnc2ccc(C#CCNC(=O)c3cncn(Cc4ccc(F)c(F)c4)c3=O)cc2c1", "note": "[II-79]", "values": [{"measurement": "IC50", "result": 201, "unit": "nM"}]}
{"smiles": "CN(Cc1cccc2ncccc12)c1ncnc2ccc(C#CCNC(=O)c3cccn(Cc4ccc(F)c(F)c4)c3=O)cc12", "note": "[II-46]", "values": [{"measurement": "IC50", "result": 6, "unit": "nM"}]}
{"smiles": "O=C(NCC#Cc1ccc2ncc(-c3ccccc3)cc2c1)c1cncn(Cc2ccc(F)c(F)c2)c1=O", "note": "[I-81]", "values": [{"measurement": "IC50", "result": 66, "unit": "nM"}]}
{"smiles": "CCOc1ncnc2ccc(C#CCNC(=O)c3cncn(Cc4ccc(F)c(F)c4)c3=O)cc12", "note": "[I-7]", "values": [{"measurement": "IC50", "result": 94, "unit": "nM"}]}
{"smiles": "CNCCCN(C)c1ncnc2ccc(C#CCNC(=O)c3cccn(Cc4ccc(F)c(F)c4)c3=O)cc12", "note": "[II-28]", "values": [{"measurement": "IC50", "result": 110, "unit": "nM"}]}
{"smiles": "O=C(NCC#Cc1ccc2ncnc(NC3CCN(Cc4ccccc4)CC3)c2c1)c1cncn(Cc2ccc(F)c(F)c2)c1=O", "note": "[II-23]", "values": [{"measurement": "IC50", "result": 142, "unit": "nM"}]}
{"smiles": "CN(C)CCCNc1ccnc2ccc(C#CCNC(=O)c3cccn(Cc4ccc(F)c(F)c4)c3=O)cc12", "note": "[I-120]", "values": [{"measurement": "IC50", "result": 656, "unit": "nM"}]}
{"smiles": "O=C(NCC#Cc1ccc2ncccc2c1)c1cncn(Cc2ccc(F)c(F)c2)c1=O", "note": "[I-80]", "values": [{"measurement": "IC50", "result": 132, "unit": "nM"}]}
{"smiles": "CCN1CC[C@@H](Nc2cnc3ccc(C#CCNC(=O)c4cncn(Cc5ccc(F)c(F)c5)c4=O)cc3n2)[C@@H](F)C1", "note": "[I-45]", "values": [{"measurement": "IC50", "result": 8, "unit": "nM"}]}
{"smiles": "O=C(NCC#Cc1ccc2ncnc(NC3CCN(CCO)CC3)c2c1)c1cncn(Cc2ccc(F)c(F)c2)c1=O", "note": "[II-24]", "values": [{"measurement": "IC50", "result": 77, "unit": "nM"}]}
{"smiles": "O=C(NCC#Cc1ccc2nccc(OCC3CCCCO3)c2c1)c1cccn(Cc2ccc(F)c(F)c2)c1=O", "note": "(stereo not shown) [I-109]", "values": [{"measurement": "IC50", "result": 166, "unit": "nM"}]}
{"smiles": "CN(C)C1CCN(c2ncnc3ccc(C#CCNC(=O)c4cccn(Cc5ccc(F)c(F)c5)c4=O)cc23)CC1", "note": "[II-40]", "values": [{"measurement": "IC50", "result": 74, "unit": "nM"}]}
{"smiles": "O=C(NCC#Cc1ccc2nccc(C3=CCCNC3)c2c1)c1cncn(Cc2ccc(F)c(F)c2)c1=O", "note": "[II-91]", "values": [{"measurement": "IC50", "result": 14, "unit": "nM"}]}
{"smiles": "O=C(NCC#Cc1ccc2ncnc(-c3ccccc3)c2c1)c1cncn(Cc2ccc(F)c(F)c2)c1=O", "note": "[II-65]", "values": [{"measurement": "IC50", "result": 58, "unit": "nM"}]}
{"smiles": "COCCN1CCC(Nc2cnc3ccc(C#CCNC(=O)c4ccnn(Cc5ccc(F)c(F)c5)c4=O)cc3n2)CC1", "note": "[I-53]", "values": [{"measurement": "IC50", "result": 8, "unit": "nM"}]}
{"smiles": "CCN(C)c1c(C#N)cnc2ccc(C#CCNC(=O)c3cccn(Cc4ccc(F)c(F)c4)c3=O)cc12", "note": "[II-103]", "values": [{"measurement": "IC50", "result": 77, "unit": "nM"}]}
{"smiles": "CN(C)CCCOc1ccnc2ccc(C#CCNC(=O)c3cccn(C(CO)c4ccc(F)c(F)c4)c3=O)cc12", "note": "(stereo not shown) [I-125]", "values": [{"measurement": "IC50", "result": 2, "unit": "nM"}]}
{"smiles": "CC(C)Nc1c([N+](=O)[O-])cnc2ccc(C#CCNC(=O)c3cncn(Cc4ccc(F)c(F)c4)c3=O)cc12", "note": "[I-128]", "values": [{"measurement": "IC50", "result": 116, "unit": "nM"}]}
{"smiles": "COCCN1CCC(Nc2cnc3ccc(C#CCNC(=O)c4cccn([C@@H](C)c5ccc(F)c(F)c5)c4=O)cc3n2)CC1", "note": "[I-52]", "values": [{"measurement": "IC50", "result": 4, "unit": "nM"}]}
{"smiles": "CC(C)(CO)CNc1ncnc2ccc(C#CCNC(=O)c3cccn(Cc4ccc(F)c(F)c4)c3=O)cc12", "note": "[II-32]", "values": [{"measurement": "IC50", "result": 124, "unit": "nM"}]}
{"smiles": "CN(C)c1cnc2ccc(C#CCNC(=O)c3cncn(Cc4ccc(F)c(F)c4)c3=O)cc2n1", "note": "[I-15]", "values": [{"measurement": "IC50", "result": 68, "unit": "nM"}]}
{"smiles": "O=C(NCC#Cc1ccc2ncc(C(=O)N3CCOCC3)cc2c1)c1cncn(Cc2ccc(F)c(F)c2)c1=O", "note": "[II-82]", "values": [{"measurement": "IC50", "result": 531, "unit": "nM"}]}
{"smiles": "O=C(NCC#Cc1ccc2nccc(OCC3CCCNC3)c2c1)c1cncn(Cc2ccc(F)c(F)c2)c1=O", "note": "(stereo not shown) [I-123]", "values": [{"measurement": "IC50", "result": 2, "unit": "nM"}]}
{"smiles": "CCN(CC)c1ncnc2ccc(C#CCNC(=O)c3c(C)n(CCO)n(Cc4ccc(F)c(F)c4)c3=O)cc12", "note": "[II-49]", "values": [{"measurement": "IC50", "result": 50, "unit": "nM"}]}
{"smiles": "O=C(NCC#Cc1ccc2nccc(OC3CCNCC3)c2c1)c1cccn(Cc2ccc(F)c(F)c2)c1=O", "note": "[I-114]", "values": [{"measurement": "IC50", "result": 23, "unit": "nM"}]}
{"smiles": "CCOc1ccnc2ccc(C#CCNC(=O)c3cccn(Cc4ccc(F)c(F)c4)c3=O)cc12", "note": "[I-94]", "values": [{"measurement": "IC50", "result": 55, "unit": "nM"}]}
{"smiles": "CN(C)[C@H]1CC[C@H](Nc2cnc3ccc(C#CCNC(=O)c4cncn(Cc5ccc(F)c(F)c5)c4=O)cc3n2)CC1", "note": "[I-43]", "values": [{"measurement": "IC50", "result": 5, "unit": "nM"}]}
{"smiles": "CN(C)CCCOc1ccnc2ccc(C#CCNC(=O)c3cncn(Cc4ccc(F)c(F)c4)c3=O)cc12", "note": "[I-88]", "values": [{"measurement": "IC50", "result": 15, "unit": "nM"}]}
{"smiles": "CN1CCC[C@@H](COc2ccnc3ccc(C#CCNC(=O)c4cccn(Cc5cc(F)c(F)c(F)c5)c4=O)cc23)C1", "note": "[I-125.17]", "values": [{"measurement": "IC50", "result": 2, "unit": "nM"}]}
{"smiles": "O=C(NCC#Cc1ccc2ncc(NC3CCNCC3)nc2c1)c1cncn(Cc2ccc(F)c(F)c2)c1=O", "note": "[I-27]", "values": [{"measurement": "IC50", "result": 3, "unit": "nM"}]}
{"smiles": "CN(C)c1c(C#N)cnc2ccc(C#CCNC(=O)c3cccn(Cc4ccc(F)c(F)c4)c3=O)cc12", "note": "[II-94]", "values": [{"measurement": "IC50", "result": 27, "unit": "nM"}]}
{"smiles": "O=C(NCC#Cc1ccc2ncc(N[C@H]3CC[C@H](O)CC3)nc2c1)c1cncn(Cc2ccc(F)c(F)c2)c1=O", "note": "[I-39]", "values": [{"measurement": "IC50", "result": 21, "unit": "nM"}]}
